In BindingDB's records for PubMed 10617681 (Dupont Pharmaceuticals, 2000):

What was measured:
[1] = molecular target: 5-hydroxytryptamine receptor 2B (Homo sapiens, UniProt P41595)
[2] = molecular target: T1, 5-hydroxytryptamine receptor 2C (Homo sapiens, UniProt P28335)
T1 sequence (P28335 whole entry): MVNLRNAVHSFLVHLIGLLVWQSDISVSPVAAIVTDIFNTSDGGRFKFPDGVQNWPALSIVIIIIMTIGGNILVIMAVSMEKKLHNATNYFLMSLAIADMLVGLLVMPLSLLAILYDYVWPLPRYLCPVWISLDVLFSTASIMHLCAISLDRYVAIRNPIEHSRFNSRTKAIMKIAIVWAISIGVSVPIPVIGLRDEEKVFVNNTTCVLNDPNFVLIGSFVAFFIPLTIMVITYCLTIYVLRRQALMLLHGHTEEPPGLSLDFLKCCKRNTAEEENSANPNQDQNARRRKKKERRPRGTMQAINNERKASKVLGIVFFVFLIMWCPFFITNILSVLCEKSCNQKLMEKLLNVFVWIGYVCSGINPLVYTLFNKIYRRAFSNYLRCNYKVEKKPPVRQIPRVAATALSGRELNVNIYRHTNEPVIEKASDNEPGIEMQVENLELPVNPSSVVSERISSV

Chain of 5-hydroxytryptamine receptor 2B (P41595 whole entry): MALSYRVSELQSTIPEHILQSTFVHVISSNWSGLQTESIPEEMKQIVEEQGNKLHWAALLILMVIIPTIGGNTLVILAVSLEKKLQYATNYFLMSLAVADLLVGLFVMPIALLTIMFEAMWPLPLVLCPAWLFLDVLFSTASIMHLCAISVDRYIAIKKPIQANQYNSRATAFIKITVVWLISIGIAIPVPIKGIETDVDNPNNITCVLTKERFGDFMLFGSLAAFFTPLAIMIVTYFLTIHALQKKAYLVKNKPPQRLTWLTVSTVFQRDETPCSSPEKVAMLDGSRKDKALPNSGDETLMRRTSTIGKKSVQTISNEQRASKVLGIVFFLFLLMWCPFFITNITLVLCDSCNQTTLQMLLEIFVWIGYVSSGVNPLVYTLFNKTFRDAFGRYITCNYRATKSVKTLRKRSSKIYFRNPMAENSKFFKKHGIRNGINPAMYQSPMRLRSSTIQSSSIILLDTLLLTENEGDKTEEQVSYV

SMILES: C[C@H](N)Cc1cccc(C(F)(F)F)c1 [Norfenfluramine (+)]
- Ki [1]: 27 nM
- Ki [2]: 56 nM

SMILES: C[C@@H](N)Cc1cccc(C(F)(F)F)c1 [l-norfenfluramine]
- Ki [1]: 65 nM
- Ki [2]: 99 nM
